The results in this text go back to US10888549B2, “Pharmaceutical agents targeting cancer stem cells” (THE JOHNS HOPKINS UNIVERSITY, priority 2016, dated 2021).

Holding throughout (format): cell-based, human
One assay has as its system let-7. Description: let-7 expression by Q-RT-PCR. As to conditions: parental or spheroid bladder cancer cells. As for the experimental part:
Total RNA from cell lines was isolated using the RNeasy Plus Mini kit (Qiagen, Valencia, USA) according to the manufacturer's protocol. Total RNA extraction from bladder tissue was performed with the QIAzol Lysis Reagent (Qiagen) followed by phenol extraction and ethanol precipitation. Total RNA was eluted in DEPC treated water and stored at -80° C. Total RNA extraction from urine was performed using the […] Isolation Kit (Ambion, Austin, USA). These total RNA were converted to cDNA using the SuperScript III First-Strand Synthesis System (Life technologies, Carlsbad, USA), which was then used as a template for Q-RT-PCR. Q-RT-PCR was performed using the Fast SYBR Green Master Mix (Thermo Fisher Scientific, Waltham, USA) on a 7900HT Fast Real-Time PCR System (Life technologies) in triplicate. Micro RNA (miRNA) extraction was performed using the […] Isolation Kit, and was reverse transcribed using TaqMan reverse transcription kit (Applied Biosystems, Foster City, USA) and miRNA-specific RT primers provided with TaqMan microRNA assays (Applied Biosystems). Q-RT-PCR for miRNAs was performed using the TaqMan Universal PCR Master Mix according to the manufacturer's protocol. SDS software (Applied Biosystems) was used to determine cycle threshold (Ct) values. Expression level was quantified relative to β-actin for mRNA and RNU6B for miRNA using the 2-ΔΔCt method (12).

The test system of the next assay is YAP1. Description: YAP1 expression by western blotting. As for the experimental part: Whole cell lysates were extracted using RIPA buffer (Thermo Scientific) supplemented with 10 μL/mL Halt™ Protease Inhibitor Cocktail Kit (Life Technologies) and 30 μL/mL Halt™ Phosphatase Inhibitor Cocktail Kit (Life Technologies). The protein concentrations were determined using a Pierce™ BCA Protein Assay Kit (Life Technologies), and the protein were separated on NuPAGE® 4-12% Bis-Tris Gel (Life Technologies) according to the manufacturer's protocol. COX2 (D5H5), NANOG (D73G4), OCT4 (D7O5Z), CD133 (A3G6K), Snail (C15D3), ZEB1 (D80D3), Vimentin (D21H3), CDH2 (D4R1H), CDH1 (24E10), p-EGFR (D7A5), EGFR (D38B1), p-AKT (D9E), AKT (cat #, 9272), p-ERK (D13.14.4E), ERK (137F5), p-YAP1 (D9W2I), p-Src (cat #, 2101), Src (36D10), DNMT1 (D63A6), DNMT3A (D23G1), and DNMT3B (D7O7O) antibodies were obtained from Cell Signaling Technology (Danvers, Mass., USA), except for SOX2 (EPR3131; Abcam, Cambridge, USA), YAP1 (ab52771; Abcam), CD24 (cat #, AF5247-SP; R&D Systems, Minneapolis USA) and β-actin (A2228; Sigma-Aldrich). Secondary horseradish peroxidase (HRP)-conjugated antibodies were obtained from Cell Signaling Technology, and chemiluminescent detection of HRP-labeled antibodies was performed using Amersham ECL Prime Western Blotting Detection Reagent (GE Healthcare, Piscataway, USA). As loading control, β-actin was used.
(In general: Immunoblotting shows a protein as a band on a membrane.)

In another assay the test system is panel of miRNAs. Description: Expression of a panel of miRNAs in BFTC 905 cells. As for the experimental part: Total RNA from cell lines was isolated using the RNeasy Plus Mini kit (Qiagen, Valencia, USA) according to the manufacturer's protocol. Total RNA extraction from bladder tissue was performed with the QIAzol Lysis Reagent (Qiagen) followed by phenol extraction and ethanol precipitation. Total RNA was eluted in DEPC treated water and stored at −80° C. Total RNA extraction from urine was performed using the MirVana miRNA Isolation Kit (Ambion, Austin, USA). These total RNA were converted to cDNA using the SuperScript III First-Strand Synthesis System (Life technologies, Carlsbad, USA), which was then used as a template for Q-RT-PCR. Q-RT-PCR was performed using the Fast SYBR Green Master Mix (Thermo Fisher Scientific, Waltham, USA) on a 7900HT Fast Real-Time PCR System (Life technologies) in triplicate. Micro RNA (miRNA) extraction was performed using the MirVana miRNA Isolation Kit, and was reverse transcribed using TaqMan reverse transcription kit (Applied Biosystems, Foster City, USA) and miRNA-specific RT primers provided with TaqMan microRNA assays (Applied Biosystems). Q-RT-PCR for miRNAs was performed using the TaqMan Universal PCR Master Mix according to the manufacturer's protocol. SDS software (Applied Biosystems) was used to determine cycle threshold (Ct) values. Expression level was quantified relative to β-actin for mRNA and RNU6B for miRNA using the 2-ΔΔCt method (12).

The next assay concerns MIRLET7BHG promoter. As to the kind of experiment: Bisulfite sequencing of let-7 host gene promoter. The note with it: bladder cancer cells. As for the experimental part: Cell pellets were digested with 1% sodium dodecyl sulfate and 50 μg/mL proteinase K (Roche, Nutley, USA) at 48° C. overnight. Isolation of genomic DNA from cell lines was performed with the phenol-chloroform extraction protocol followed by ethanol precipitation. Bisulfite treatment was conducted using an EpiTect Bisulfite Kit (QIAGEN, Valencia, USA), and was subsequently amplified via PCR using primers as shown in the following table. PCR products were purified using the QIAquick Gel Extraction kit (Qiagen), and sequenced by Genewiz DNA sequencing service (Genewiz, South Plainfield, USA). The data were analyzed using the Sequence Scanner v1.0 software (Life technologies). A methylation frequency of ≥50% of total CpG sites within the amplified region was considered “methylation-positive”. For demethylation, cells (1×10^6/T-75 flask) were treated with […] of the demethylating agent 5-Aza-dC (Sigma) dissolved in 50% acetic acid or were mock-treated with phosphate buffered saline (PBS) including the same amount of acetic acid every 24 hours for 5 days. When combined with the histone deacetylase inhibitor TSA (Sigma), 300 nmol/L TSA was added to the medium for the final 24 hours.

Take `Cc1ccc(-c2cc(C(F)(F)F)nn2-c2ccc(S(N)(=O)=O)cc2)cc1` [celecoxib, Celecoxib]: the let-7 expression result in the assay with let-7 is given as “restoration”. Moreover, the YAP1 expression result is given as “no longer able to induce” in the assay with YAP1 (COX2 inhibitor added to erlotinib, basal-type cells) and “induced” in the assay on YAP1 (agent alone, bladder cancer cells). Besides, the “expression of several miRNAs” value with panel of miRNAs is reported as “induced”. For the same molecule, the “promoter methylation of the let-7 host gene” value in the assay with MIRLET7BHG promoter is “demethylated”.
